The results in this text go back to ChEMBL document CHEMBL4387773, “Identification of potent, selective and orally bioavailable phenyl ((R)-3-phenylpyrrolidin-3-yl)sulfone analogues as RORγt inverse agonists” (Bioorg Med Chem Lett, 2019).

The target in one data set is Cytochrome P450 2D6 (Homo sapiens, UniProt P10635). In words: Inhibition of CYP2D6 (unknown origin). Format: ADME.
Another data set concerns the target T1, PXR (Homo sapiens, UniProt O75469).
T1 sequence (O75469 whole entry): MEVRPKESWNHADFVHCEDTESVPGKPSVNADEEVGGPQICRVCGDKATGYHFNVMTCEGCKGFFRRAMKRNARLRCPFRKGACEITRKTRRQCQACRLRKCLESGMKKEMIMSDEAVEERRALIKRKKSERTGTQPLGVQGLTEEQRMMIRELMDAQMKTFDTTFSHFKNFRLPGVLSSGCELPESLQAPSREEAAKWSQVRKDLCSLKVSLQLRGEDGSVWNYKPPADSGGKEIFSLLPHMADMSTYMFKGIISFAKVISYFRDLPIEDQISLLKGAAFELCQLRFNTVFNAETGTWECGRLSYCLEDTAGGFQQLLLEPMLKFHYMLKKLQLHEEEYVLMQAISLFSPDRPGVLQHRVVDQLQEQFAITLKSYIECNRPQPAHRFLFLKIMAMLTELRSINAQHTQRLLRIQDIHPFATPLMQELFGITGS
Briefly: Transactivation of PXR (unknown origin) expressed in human HepG2 cells assessed as maximum receptor activation response relative to control. It counts as cell-based. As to conditions: human HepG2 cells that express PXR, read-out: %max.

A short description of data set [1]: Stability in human liver microsomes assessed as parent compound remaining after 10 mins. Format: ADME, Microsome. As to conditions: liver microsomes, read-out: Stability.
In a further data set the target is T2, Cytochrome P450 1A2 (Homo sapiens, UniProt P05177).
T2 sequence (P05177 whole entry): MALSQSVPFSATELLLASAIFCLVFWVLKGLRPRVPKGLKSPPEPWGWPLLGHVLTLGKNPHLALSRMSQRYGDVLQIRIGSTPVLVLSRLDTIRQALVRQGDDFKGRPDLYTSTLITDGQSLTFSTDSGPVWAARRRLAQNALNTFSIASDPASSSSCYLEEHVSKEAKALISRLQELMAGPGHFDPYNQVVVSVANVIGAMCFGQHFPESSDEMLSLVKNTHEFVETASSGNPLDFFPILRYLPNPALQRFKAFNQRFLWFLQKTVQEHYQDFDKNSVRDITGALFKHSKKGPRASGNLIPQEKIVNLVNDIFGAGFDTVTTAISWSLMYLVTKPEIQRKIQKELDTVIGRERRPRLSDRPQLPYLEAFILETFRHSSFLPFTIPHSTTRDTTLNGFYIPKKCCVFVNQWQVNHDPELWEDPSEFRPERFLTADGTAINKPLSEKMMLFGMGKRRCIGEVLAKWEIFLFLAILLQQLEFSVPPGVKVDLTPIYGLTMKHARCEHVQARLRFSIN
In words: Inhibition of CYP1A2 (unknown origin). Format: ADME.

Data set [2] in a line: AUC in Balb/c mouse at 10 mg/kg, po. It counts as ADME, organism-based. The conditions noted are these: in vivo.
Data set [3] can be described thus: Cmax in Balb/c mouse at 10 mg/kg, po. Format: ADME, organism-based. More on the design: dose 10 mg/kg, route oral. As to conditions: in vivo.
Another data set deals with Cytochrome P450 3A4 (Homo sapiens, UniProt P08684). In words: Inhibition of CYP3A4 (unknown origin). It counts as ADME.
Cytochrome P450 3A4, sequence (P08684 whole entry): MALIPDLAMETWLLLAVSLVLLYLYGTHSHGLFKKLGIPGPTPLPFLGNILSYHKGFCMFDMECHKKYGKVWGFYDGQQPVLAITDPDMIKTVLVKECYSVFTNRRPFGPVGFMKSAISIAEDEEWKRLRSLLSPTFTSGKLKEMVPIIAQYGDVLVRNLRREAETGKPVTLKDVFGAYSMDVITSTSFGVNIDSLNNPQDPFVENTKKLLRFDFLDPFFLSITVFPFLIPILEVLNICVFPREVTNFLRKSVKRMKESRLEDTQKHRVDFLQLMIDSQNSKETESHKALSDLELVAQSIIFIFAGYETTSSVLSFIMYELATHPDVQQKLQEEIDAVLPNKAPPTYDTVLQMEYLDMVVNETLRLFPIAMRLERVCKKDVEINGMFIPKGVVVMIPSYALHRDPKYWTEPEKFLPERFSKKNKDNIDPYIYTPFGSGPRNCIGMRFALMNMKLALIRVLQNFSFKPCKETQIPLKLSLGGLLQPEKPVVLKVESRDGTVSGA
Data set [4] in a line: Half life in rat liver microsomes. Format: ADME, Microsome. In general terms: Microsomes from liver hold many membrane-bound enzymes, among them those of drug oxidation.
A short description of data set [5]: Half life in human liver microsomes. It counts as ADME, Microsome.
Data set [6] concerns the target T3, Oxysterols receptor LXR-alpha (Homo sapiens, UniProt Q13133).
T3 sequence (Q13133 whole entry): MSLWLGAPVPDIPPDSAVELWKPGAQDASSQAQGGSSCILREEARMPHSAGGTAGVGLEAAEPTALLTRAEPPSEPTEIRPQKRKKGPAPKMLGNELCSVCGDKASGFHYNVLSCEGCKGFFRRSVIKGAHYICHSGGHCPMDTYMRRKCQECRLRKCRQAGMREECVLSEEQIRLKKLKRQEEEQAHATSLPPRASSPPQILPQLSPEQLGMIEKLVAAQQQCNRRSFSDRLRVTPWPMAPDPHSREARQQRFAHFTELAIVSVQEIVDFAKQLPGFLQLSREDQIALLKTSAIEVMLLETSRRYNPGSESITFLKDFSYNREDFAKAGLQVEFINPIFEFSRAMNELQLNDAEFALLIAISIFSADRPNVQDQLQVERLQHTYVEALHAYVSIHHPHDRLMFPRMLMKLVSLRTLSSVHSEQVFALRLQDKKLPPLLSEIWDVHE
In words: Transactivation of human GAL4-fused LXRalpha expressed in African green monkey CV1 cells. It counts as cell-based.

Data set [7] addresses T4, Nuclear receptor ROR-alpha (Homo sapiens, UniProt P35398).
T4 sequence (P35398 whole entry): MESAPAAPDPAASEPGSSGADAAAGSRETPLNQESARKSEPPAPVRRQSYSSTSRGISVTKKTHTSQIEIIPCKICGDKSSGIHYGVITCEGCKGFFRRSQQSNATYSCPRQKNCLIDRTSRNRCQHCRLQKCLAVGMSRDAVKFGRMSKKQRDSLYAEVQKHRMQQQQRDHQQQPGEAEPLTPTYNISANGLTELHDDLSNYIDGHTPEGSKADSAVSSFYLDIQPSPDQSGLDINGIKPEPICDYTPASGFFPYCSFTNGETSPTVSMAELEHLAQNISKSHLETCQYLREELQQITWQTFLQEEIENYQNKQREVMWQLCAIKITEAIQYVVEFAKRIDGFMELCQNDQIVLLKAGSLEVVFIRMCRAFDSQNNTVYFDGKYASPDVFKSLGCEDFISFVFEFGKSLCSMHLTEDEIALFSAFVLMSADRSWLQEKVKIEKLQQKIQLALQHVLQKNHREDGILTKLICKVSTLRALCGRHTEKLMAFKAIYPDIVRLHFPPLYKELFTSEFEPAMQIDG
Briefly: Inverse agonist activity at human Gal4-fused RORalpha LBD (272 to 556 residues) expressed in human Jurkat cells measured after 18 hrs by steady-glo luciferase reporter gene assay. It counts as cell-based. In general terms: Reporter assays use an easily measured gene product as a stand-in for the process of interest.

In another data set the target is Cytochrome P450 2C19 (Homo sapiens, UniProt P33261). In words: Inhibition of CYP2C19 (unknown origin). Format: ADME.
Cytochrome P450 2C19, sequence (P33261 whole entry): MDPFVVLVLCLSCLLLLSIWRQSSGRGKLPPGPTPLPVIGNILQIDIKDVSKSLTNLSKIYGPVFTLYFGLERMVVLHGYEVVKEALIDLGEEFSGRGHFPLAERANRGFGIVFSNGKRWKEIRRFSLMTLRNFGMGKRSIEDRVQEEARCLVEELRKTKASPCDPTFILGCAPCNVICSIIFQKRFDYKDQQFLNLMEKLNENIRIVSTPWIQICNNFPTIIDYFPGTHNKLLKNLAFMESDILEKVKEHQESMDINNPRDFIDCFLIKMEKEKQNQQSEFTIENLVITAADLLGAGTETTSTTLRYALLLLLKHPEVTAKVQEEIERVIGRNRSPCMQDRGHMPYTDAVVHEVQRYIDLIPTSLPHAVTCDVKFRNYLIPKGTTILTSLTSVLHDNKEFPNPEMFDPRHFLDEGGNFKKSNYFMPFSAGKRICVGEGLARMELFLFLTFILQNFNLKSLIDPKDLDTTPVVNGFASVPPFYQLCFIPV

What is called IC50 is the midpoint of a concentration-inhibition curve. In general, AUC refers to the area under the concentration-time curve, a measure of exposure. A word on the Cmax: it is the highest concentration seen after dosing. A word on the half-life: it is how long it takes for the measured level to halve. The term EC50 denotes the concentration giving half of the maximal effect.

Where only a bound is given, the exact number is not on record here.

Cytochrome P450 2D6, sequence (P10635 whole entry): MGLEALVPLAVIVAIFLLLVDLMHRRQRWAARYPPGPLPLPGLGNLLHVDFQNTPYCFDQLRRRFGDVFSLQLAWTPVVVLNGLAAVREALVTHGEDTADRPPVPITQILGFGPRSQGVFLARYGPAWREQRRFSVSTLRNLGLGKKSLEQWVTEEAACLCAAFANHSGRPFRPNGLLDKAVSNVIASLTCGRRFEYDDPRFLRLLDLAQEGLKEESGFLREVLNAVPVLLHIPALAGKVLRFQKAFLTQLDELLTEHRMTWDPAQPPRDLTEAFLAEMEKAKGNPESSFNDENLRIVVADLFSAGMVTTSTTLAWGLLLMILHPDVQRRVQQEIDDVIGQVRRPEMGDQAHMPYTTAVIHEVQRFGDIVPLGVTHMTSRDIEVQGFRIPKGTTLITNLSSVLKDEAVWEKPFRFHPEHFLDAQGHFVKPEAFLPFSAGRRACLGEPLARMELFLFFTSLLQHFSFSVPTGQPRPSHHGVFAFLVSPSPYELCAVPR

As to `O=C(O)C12CCC(C(=O)N3CC[C@](c4ccc(C(F)(C(F)(F)F)C(F)(F)F)cc4)(S(=O)(=O)c4ccc(F)cc4)C3)(CC1)CC2`, the IC50 against Cytochrome P450 2D6, at Cytochrome P450 1A2, against Cytochrome P450 3A4 and on Cytochrome P450 2C19 was over 10 µM each time. Besides, the Emax at PXR stood at 6%. Moreover, in data set [1], the remaining at 10 min came out at 100%. Further, in data set [2], the AUC is 24 µM·h. Moreover, in data set [3], the Cmax amounted to 6.7 µM. Moreover, the half-life in [4] and in data set [5] was over 2 h throughout. The EC50 was over 7.5 µM in [6] and over 40 µM in data set [7].
Take `CC[C@]1(C(=O)N2CC[C@](c3ccc(C(F)(C(F)(F)F)C(F)(F)F)cc3)(S(=O)(=O)c3ccc(F)cc3)C2)CC[C@H](C(=O)O)CC1`: the IC50 against Cytochrome P450 2D6, against Cytochrome P450 1A2, against Cytochrome P450 3A4 and at Cytochrome P450 2C19 was over 10 µM throughout. For the same compound, the Emax on PXR amounted to 6%. The remaining at 10 min in [1] turned out to be 89%. For the same compound, the AUC in [2] came to 16.6 µM·h. In data set [3], this compound displayed a Cmax of 3.7 µM. In addition, the half-life in data set [4] and in [5] was over 2 h throughout. Further, the EC50 in data set [6] was over 7.5 µM; in data set [7] it was over 40 µM.
